Patent publication US20140105879A1, “FLOUR-BASED FUNCTIONAL FOOD” (priority 2011, published 2014)

System: HMG-CoA reductase
Experiment: action on the enzyme HMG-CoA reductase (further experimental data)
From the text: Therefore, the functional bread to which vegetable extracts have been added according to the present invention is capable of exerting a functional, salutary action in prevention and treatment of cholesterol and triglyceride levels exceeding the reference values, in addition to an action of protecting the arteries and the cardio-circulatory system and a hepatoprotective and antioxidant action, thanks to the synergistic biochemical actions of the phytocomplexes included in the bread, which enable an enhanced bioactivity thereof to be obtained in the resulting product.

action on the enzyme HMG-CoA reductase: reducing the quantity thereof
Structure (SMILES): CCCCCCCCCCCCCCCCCCCCCCCCCCCCO [octacosanol]
